Source: ChEMBL document CHEMBL5360622, “Leucettinibs, a Class of DYRK/CLK Kinase Inhibitors Inspired by the Marine Sponge Natural Product Leucettamine B” (J Med Chem, 2023)

Legend:
[1] = target: T1, Casein kinase I isoform epsilon (Homo sapiens, UniProt P49674); conditions: dose 10.0 µM
Target sequence in this assay (P49674 whole entry, looked up, canonical isoform): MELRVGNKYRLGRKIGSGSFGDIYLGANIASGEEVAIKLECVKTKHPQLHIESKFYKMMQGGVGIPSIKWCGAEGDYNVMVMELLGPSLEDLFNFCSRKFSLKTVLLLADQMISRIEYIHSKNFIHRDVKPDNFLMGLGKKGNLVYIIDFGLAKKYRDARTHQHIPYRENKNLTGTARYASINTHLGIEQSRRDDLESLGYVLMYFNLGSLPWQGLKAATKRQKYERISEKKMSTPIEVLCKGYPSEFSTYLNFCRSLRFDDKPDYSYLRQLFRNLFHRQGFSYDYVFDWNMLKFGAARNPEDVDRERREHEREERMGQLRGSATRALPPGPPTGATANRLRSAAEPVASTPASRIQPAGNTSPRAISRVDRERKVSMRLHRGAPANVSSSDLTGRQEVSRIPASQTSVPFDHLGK

[2] = target: Calcium/calmodulin-dependent protein kinase kinase 2 (Homo sapiens) (UniProt Q96RR4); conditions: dose 10.0 µM
[3] = target: T2, Glycogen synthase kinase-3 beta (Homo sapiens, UniProt P49841); format: cell-based, Sf9
Target sequence in this assay (P49841 whole entry): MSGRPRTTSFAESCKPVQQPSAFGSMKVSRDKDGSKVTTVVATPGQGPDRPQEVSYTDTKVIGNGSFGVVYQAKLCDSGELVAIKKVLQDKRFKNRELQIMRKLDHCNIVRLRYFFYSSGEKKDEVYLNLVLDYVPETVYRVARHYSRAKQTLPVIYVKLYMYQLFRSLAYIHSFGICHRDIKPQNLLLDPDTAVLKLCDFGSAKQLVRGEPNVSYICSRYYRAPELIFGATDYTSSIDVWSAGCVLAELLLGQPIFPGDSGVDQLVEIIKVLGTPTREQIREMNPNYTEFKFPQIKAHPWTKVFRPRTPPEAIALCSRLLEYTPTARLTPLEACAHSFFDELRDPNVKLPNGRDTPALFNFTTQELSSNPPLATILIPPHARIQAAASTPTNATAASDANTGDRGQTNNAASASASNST

[4] = target: Aurora kinase A (Homo sapiens) (UniProt O14965); conditions: dose 10.0 µM
[5] = target: T1, Casein kinase I isoform epsilon
Target sequence in this assay (P49674 whole entry, canonical isoform): as the sequence (P49674 whole entry, looked up, canonical isoform) above

[6] = target: T3, Dual specificity tyrosine-phosphorylation-regulated kinase 4 (Homo sapiens, UniProt Q9NR20)
T3 sequence (Q9NR20 whole entry): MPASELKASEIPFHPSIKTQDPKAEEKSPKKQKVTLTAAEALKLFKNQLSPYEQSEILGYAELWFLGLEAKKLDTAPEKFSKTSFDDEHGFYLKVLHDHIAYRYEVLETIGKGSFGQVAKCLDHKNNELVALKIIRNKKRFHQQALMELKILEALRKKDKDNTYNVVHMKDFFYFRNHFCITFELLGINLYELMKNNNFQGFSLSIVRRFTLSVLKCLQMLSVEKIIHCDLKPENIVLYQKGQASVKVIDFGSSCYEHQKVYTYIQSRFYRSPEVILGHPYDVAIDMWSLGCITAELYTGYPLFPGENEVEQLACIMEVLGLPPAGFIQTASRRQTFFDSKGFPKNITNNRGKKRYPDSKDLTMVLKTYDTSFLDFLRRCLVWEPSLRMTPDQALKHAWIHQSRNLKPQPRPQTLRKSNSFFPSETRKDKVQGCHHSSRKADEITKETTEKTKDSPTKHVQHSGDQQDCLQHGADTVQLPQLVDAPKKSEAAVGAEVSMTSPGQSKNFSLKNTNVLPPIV

[7] = target: Casein kinase I isoform delta (Homo sapiens) (UniProt P48730); conditions: dose 10.0 µM
[8] = target: Myotonin-protein kinase (Homo sapiens) (UniProt Q09013); conditions: dose 10.0 µM
[9] = target: T4, Mitogen-activated protein kinase 15 (Homo sapiens) (UniProt Q8TD08); conditions: dose 10.0 µM
T4 sequence (whole entry): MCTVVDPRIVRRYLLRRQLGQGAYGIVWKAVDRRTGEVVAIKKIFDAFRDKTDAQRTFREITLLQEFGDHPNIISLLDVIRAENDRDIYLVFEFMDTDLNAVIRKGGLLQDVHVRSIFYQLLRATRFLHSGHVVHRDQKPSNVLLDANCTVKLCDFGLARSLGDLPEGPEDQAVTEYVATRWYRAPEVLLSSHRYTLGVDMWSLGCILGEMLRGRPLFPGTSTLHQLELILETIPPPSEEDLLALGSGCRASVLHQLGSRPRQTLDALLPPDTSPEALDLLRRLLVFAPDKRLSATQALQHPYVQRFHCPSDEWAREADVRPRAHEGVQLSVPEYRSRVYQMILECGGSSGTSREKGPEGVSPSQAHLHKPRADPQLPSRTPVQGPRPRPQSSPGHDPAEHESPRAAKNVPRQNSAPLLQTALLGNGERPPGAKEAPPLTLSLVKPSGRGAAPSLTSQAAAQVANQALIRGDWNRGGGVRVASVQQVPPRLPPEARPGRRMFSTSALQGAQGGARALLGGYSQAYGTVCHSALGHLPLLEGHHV

[10] = target: Dual specificity tyrosine-phosphorylation-regulated kinase 1A (Homo sapiens, UniProt Q13627); conditions: dose 10.0 µM
[11] = target: Serine/threonine-protein kinase haspin (Homo sapiens) (UniProt Q8TF76); conditions: dose 10.0 µM
[12] = target: Cyclin-dependent kinase 5/CDK5 activator 1 (Homo sapiens, UniProt Q00535); format: cell-based, Sf9
[13] = target: Dual specificity tyrosine-phosphorylation-regulated kinase 2 (Homo sapiens) (UniProt Q92630); conditions: dose 10.0 µM
[14] = target: Dual specificity protein kinase CLK1 (Homo sapiens, UniProt P49759); conditions: dose 10.0 µM
[15] = target: T2, Glycogen synthase kinase-3 beta; conditions: dose 10.0 µM
Target sequence in this assay (P49841 whole entry, looked up): as the sequence (P49841 whole entry) above

[16] = target: Dual specificity protein kinase CLK3 (Homo sapiens, UniProt P49761); conditions: dose 10.0 µM
[17] = target: AP2-associated protein kinase 1 (Homo sapiens) (UniProt Q2M2I8); conditions: dose 10.0 µM
[18] = target: Casein kinase II subunit alpha (Homo sapiens) (UniProt P68400); conditions: dose 10.0 µM
[19] = target: T5, Dual specificity tyrosine-phosphorylation-regulated kinase 2 (Homo sapiens, UniProt Q92630)
T5 sequence (Q92630 whole entry): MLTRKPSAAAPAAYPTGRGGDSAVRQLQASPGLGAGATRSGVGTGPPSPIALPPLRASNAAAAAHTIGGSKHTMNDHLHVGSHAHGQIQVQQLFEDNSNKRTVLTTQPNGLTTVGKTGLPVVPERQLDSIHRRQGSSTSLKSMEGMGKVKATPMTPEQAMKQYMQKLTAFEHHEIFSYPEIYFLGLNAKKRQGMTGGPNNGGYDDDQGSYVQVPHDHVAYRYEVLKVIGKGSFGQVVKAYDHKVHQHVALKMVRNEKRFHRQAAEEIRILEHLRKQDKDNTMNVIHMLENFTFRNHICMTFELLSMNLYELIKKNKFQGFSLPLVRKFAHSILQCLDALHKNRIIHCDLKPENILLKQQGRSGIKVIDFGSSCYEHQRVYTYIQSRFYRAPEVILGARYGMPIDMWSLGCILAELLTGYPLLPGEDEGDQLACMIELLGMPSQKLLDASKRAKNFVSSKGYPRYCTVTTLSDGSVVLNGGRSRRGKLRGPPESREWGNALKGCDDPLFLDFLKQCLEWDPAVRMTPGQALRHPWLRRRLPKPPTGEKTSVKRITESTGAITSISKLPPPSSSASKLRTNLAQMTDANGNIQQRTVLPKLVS

AP2-associated protein kinase 1 (Homo sapiens), sequence (Q2M2I8 whole entry, looked up): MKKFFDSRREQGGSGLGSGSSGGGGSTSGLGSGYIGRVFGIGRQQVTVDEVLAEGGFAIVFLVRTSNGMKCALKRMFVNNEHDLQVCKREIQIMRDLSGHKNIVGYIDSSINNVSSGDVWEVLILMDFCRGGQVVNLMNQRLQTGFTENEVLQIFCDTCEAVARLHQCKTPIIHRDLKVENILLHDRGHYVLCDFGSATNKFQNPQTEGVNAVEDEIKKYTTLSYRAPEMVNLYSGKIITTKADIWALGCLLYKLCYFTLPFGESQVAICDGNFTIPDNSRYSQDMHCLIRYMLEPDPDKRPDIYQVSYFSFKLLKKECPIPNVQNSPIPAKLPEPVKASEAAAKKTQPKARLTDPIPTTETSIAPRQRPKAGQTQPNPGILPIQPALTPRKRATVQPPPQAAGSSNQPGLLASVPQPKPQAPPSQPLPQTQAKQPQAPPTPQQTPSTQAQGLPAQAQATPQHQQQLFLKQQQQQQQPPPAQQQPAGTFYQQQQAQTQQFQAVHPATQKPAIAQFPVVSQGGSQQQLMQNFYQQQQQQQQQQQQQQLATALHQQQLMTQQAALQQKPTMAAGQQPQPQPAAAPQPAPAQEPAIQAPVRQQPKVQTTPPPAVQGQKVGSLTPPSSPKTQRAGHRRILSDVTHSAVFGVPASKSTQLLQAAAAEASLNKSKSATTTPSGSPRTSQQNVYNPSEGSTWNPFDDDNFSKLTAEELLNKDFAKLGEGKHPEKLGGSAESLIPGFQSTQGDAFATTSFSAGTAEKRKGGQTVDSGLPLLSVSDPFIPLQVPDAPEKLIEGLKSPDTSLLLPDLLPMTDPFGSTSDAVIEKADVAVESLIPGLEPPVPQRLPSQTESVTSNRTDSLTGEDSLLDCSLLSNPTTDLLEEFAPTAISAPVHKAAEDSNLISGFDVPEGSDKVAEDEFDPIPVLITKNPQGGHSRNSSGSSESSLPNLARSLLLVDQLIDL
Dual specificity protein kinase CLK3, sequence (P49761 whole entry, looked up): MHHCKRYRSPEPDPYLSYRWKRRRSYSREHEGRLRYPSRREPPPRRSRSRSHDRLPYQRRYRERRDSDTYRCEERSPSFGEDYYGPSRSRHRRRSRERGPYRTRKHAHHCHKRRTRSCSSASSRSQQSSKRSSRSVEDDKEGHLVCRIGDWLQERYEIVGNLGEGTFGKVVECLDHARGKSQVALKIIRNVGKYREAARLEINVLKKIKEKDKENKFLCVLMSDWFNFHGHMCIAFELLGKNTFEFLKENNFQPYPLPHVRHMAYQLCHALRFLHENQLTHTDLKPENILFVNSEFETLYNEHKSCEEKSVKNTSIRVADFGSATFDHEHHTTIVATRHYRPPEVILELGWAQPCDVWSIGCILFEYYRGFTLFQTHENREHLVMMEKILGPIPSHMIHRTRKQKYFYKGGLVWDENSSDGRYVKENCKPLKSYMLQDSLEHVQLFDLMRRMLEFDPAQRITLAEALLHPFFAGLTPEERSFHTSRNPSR
Casein kinase II subunit alpha (Homo sapiens), sequence (P68400 whole entry, looked up): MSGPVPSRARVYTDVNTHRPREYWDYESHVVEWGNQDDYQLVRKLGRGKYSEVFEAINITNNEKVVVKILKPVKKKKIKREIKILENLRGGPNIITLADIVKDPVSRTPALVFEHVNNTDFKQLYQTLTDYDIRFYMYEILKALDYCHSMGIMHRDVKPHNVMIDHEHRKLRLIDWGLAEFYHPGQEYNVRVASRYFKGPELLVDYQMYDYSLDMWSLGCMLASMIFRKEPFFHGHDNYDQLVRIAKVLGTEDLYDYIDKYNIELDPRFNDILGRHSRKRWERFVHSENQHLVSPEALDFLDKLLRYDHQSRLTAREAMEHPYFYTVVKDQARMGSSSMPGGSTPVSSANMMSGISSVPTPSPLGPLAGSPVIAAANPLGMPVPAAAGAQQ
Serine/threonine-protein kinase haspin (Homo sapiens), sequence (Q8TF76 whole entry): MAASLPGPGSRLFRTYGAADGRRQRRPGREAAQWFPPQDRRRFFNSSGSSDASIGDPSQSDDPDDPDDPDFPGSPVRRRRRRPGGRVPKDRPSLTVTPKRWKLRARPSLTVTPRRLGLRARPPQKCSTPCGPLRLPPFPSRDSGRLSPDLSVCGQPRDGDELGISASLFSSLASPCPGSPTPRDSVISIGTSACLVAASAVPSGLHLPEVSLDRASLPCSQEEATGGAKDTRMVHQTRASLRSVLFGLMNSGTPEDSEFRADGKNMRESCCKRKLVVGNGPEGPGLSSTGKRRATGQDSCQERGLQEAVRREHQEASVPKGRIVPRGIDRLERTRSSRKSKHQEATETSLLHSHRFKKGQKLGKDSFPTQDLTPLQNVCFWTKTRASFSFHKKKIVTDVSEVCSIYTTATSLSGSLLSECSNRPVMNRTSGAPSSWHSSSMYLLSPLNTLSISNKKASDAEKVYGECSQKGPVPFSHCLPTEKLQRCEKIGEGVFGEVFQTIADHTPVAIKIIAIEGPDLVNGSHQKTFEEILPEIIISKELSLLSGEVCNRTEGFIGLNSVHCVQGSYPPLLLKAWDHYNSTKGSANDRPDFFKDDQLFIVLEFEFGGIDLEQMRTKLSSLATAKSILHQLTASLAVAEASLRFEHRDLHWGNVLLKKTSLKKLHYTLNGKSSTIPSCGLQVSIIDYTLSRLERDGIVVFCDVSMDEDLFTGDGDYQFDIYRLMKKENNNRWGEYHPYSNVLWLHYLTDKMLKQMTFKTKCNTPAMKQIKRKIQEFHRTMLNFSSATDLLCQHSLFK
Dual specificity protein kinase CLK1, sequence (P49759 whole entry, looked up): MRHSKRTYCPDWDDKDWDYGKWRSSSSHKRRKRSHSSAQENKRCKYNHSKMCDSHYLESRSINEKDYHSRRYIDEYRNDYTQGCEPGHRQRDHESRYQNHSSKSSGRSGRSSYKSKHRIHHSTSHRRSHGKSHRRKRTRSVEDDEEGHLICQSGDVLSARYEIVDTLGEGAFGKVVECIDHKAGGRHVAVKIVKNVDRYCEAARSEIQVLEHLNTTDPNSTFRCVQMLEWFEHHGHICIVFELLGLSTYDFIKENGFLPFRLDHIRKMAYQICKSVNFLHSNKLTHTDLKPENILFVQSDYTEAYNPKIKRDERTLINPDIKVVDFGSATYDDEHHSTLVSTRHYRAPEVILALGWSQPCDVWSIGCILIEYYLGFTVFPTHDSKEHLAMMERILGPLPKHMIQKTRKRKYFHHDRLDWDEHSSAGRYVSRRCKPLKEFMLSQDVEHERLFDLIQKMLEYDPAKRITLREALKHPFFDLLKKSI
Aurora kinase A (Homo sapiens), sequence (O14965 whole entry, canonical isoform): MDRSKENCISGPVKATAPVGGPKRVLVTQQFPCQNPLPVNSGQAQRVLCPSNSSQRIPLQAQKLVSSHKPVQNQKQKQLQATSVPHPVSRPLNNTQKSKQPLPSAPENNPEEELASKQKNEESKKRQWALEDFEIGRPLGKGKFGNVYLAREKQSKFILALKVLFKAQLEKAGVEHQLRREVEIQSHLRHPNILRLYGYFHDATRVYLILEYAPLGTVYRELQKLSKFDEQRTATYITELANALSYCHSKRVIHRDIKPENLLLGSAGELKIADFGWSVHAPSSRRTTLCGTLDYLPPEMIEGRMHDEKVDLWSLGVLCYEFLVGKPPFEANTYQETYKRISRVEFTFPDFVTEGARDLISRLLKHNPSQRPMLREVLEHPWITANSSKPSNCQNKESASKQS
Casein kinase I isoform delta (Homo sapiens), sequence (P48730 whole entry, looked up, canonical isoform): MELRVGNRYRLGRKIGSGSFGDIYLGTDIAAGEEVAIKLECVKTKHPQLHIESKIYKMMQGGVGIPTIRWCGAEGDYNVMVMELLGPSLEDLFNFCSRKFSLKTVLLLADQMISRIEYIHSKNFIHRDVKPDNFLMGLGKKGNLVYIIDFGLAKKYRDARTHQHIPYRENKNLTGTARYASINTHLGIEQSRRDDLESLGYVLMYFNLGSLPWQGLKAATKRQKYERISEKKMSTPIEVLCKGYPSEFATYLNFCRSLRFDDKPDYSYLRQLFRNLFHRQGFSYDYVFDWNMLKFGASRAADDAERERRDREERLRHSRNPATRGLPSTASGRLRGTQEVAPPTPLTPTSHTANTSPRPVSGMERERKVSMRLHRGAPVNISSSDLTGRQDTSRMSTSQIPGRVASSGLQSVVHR

ΔTm [1]: -2.5 °C | ΔTm [2]: -0.5 °C | IC50 [3]: > 10 µM | ΔTm [4]: -0.4 °C | IC50 [5]: > 10 µM | IC50 [6]: > 10 µM | ΔTm [7]: 1.4 °C | ΔTm [8]: 0.1 °C | ΔTm [10]: 3.2 °C | ΔTm [11]: -0.1 °C | IC50 [12]: > 10 µM | ΔTm [13]: 0 °C | ΔTm [14]: 2 °C | ΔTm [15]: 0.9 °C | ΔTm [16]: -0.5 °C | ΔTm [17]: 0 °C | ΔTm [18]: 0.3 °C | IC50 [19]: > 10 µM
SMILES: O=C1NC(NC23CC4CC(CC(C4)C2)C3)=N/C1=C\c1ccc2scnc2c1
ΔTm [9]: -0.2 °C
